Test results taken from US7087595B2, “Antihistaminic spiro compounds” (Janssen Pharmaceutica, N.V., priority 1998, dated 2006).
Counter-ions that a name gives are not always drawn. Like-named read-outs stand apart in the source and are kept apart here.

System: Compound 48/80 induced Lethality
Test: Protection of Rats from Compound 48/80 induced Lethality
Type: in vivo
Conditions: protection from Compound 48/80 induced lethality
[1] = Rattus norvegicus, read-out: ED50

Molecule: CN1CCC2(CC1)c1ccccc1CCn1c(C(N)=O)cnc12.O [Compound 80, 6,11-dihydro-1′-methylspiro[5H-imidazo[2,1-b][3]benzazepine-11,4′-piperidine]-3-carboxamide monohydrate]
- ED50 [1]: 0.63 mg/kg

Molecule: 5,6-dihydrospiro[11H-imidazo[2,1-b][3]benzazepine-11,4′-piperidine]-3-methanol (E)-2-butenedioic acid salt (2:1) [Compound 18a]
- ED50: 0.08 mg/kg

Molecule: C1=Cn2ccnc2C2(CCNCC2)c2ccsc21 [Compound 56a, spiro[10H-imidazo[1,2-a]thieno[3,2-d]azepine-10,4′-piperidine]]
- ED50 [1]: 2.5 mg/kg

Molecule: CCOC(=O)C(CN1CCC2(CC1)c1ccccc1CCn1c(C(N)=O)cnc12)c1ccccc1 (stereo not drawn) [Compound 64, ethyl 3-(aminocarbonyl)-6,11-dihydro-α-phenylspiro[5H-imidazo-[2,1-b][3]benzazepine-11,4′-piperidine]-1′-propanoate monohydrochloride]
- ED50 [1]: 0.31 mg/kg

Molecule: CCCCN1CCC2(CC1)c1ccccc1CCn1ccnc12.CCCCN1CCC2(CC1)c1ccccc1CCn1ccnc12.Cl.Cl.Cl.Cl.O [Compound 3, 1′-butyl-5,6-dihydrospiro[imidazo[2,1-b][3]-benzazepine-11-[11H],4′-piperidine]dihydrochloride.hemihydrate]
- ED50: 2.5 mg/kg

Molecule: CN1CCC2(CC1)c1ccccc1CCn1ccnc12.O=S(=O)(O)NC1CCCCC1.O=S(=O)(O)NC1CCCCC1 [Compound 1, 6,11-dihydro-1′-methylspiro[5H-imidazo[2,1-b][3]benzazepine-11,4′-piperidine]cyclohexylsulfamate(1:2)]
- ED50: 2.5 mg/kg

Molecule: NC(=O)c1cnc2n1CCc1ccccc1C21CCN(CCO)CC1 [Compound 62, 6,11-dihydro-1′-(2-hydroxyetehyl)spiro[5H-imidazo[2,1-b][3]-benzazepine-11,4′-piperidine]-3-carboxamide]
- ED50: 0.63 mg/kg

Molecule: Cl.Cl.NC(=O)c1nc2n(c1C(N)=O)CCc1ccccc1C21CCNCC1.O [Compound 53, 6,11-dihydrospiro[5H-imidazo[2,1-b][3]benzazepine-11,4′-piperidine]-2,3-dicarboxamide dihydrochloride monohydrate]
- ED50 [1]: 0.31 mg/kg

Molecule: Clc1cnc2n1CCc1ccccc1C21CCNCC1.O=C(O)/C=C/C(=O)O [Compound 20, 3-chloro-6,11-dihydrospiro[5H-imidazo[2,1-b][3]benzazepine-11,4′-piperidine] (E)-2-butenedioate (1:1)]
- ED50 [1]: 0.31 mg/kg

Molecule: COCc1cnc2n1CCc1ccccc1C21CCNCC1.O=C(O)/C=C/C(=O)O [Compound 58, 6,11-dihydro-3-(methoxymethyl)spiro[5H-imidazo[2,1-b][3]benzazepine-11,4′-piperidine]. (E)-2-butenedioate (1:1)]
- ED50: 2.5 mg/kg

Molecule: 3-(aminocarbonyl)-6,11-dihydrospiro[5H-imidazo[2,1-b][3]-benzazepine-11,4′-piperidine]-1′-carboxylate [Compound 79]
- ED50: 0.04 mg/kg

Molecule: Cl.Cl.NC(=O)c1cnc2n1CCc1ccccc1C21CCNCC1 [Compound 17, 5,6-dihydrospiro[11H-imidazo[2,1-b][3]-benzazepine-11,4′-piperidine]-3-carboxamide dihydrochloride]
- ED50 [1]: 0.04 mg/kg
